Results: US12522584B2, “3,4-dihydroisoquinoline compound and use thereof” (CSPC Zhongqi Pharmaceutical Technology (Shijiazhuang) Co., …, priority 2020, dated 2026)
Marks after values point to notes of the source that are not given here.

Assays:
[1] = test system: MV4-11 xenografts; experiment: In vivo efficacy in MV4-11 subcutaneous xenograft model; conditions: for d9 Tumor Volume (mm^3): 9th day after administration; for Body Weight Change (%): 11 consecutive days, NOD-SCID mice; for Tumor Weight / Tumor weight inhibition rate (%): 11 days; for Tumor Weight: tumors dissected at end; for Tumor weight inhibition rate (%): versus vehicle group; for d0 Tumor Volume (mm^3): d0, before grouping for administration (baseline); for RTV (d9): relative tumor volume = d9/d0 tumor volume
Method: Experimental female NOD-SCID mice, SPF grade, 4 to 5 weeks, were purchased from Beijing Vital River Laboratory Animal Technology Co., Ltd. The mice were intraperitoneally injected with cyclophosphamide at a dose of 100 mg/kg one day before cell inoculation. The human acute monocytic leukemia cell line MV4-11 (1×10^7/0.1 ml/mouse) was subcutaneously inoculated into forelimb axilla of mice to establish a subcutaneous xenograft model. When the tumor volumes reached about 110 mm^3 (10 days after inoculation), the mice were equally grouped according to the tumor volume, with 5 mice in each group, i.e., vehicle group (2% DMSO+98% (0.2 g/mL) hydroxypropyl-β-cyclodextrin) and test drug groups. For the test drug groups, the dose of administration was 100 mg/kg, the dosing volume was 10 mL/kg, the dosing frequency was BID, the tumor diameters were measured twice per week, and the data was recorded. The mice were administered for 11 consecutive days. When the experiment ended, the tumors were dissected and weighed.

[2] = target: PRMT5 (Homo sapiens (Human), UniProt O14744); experiment: radiometric assay for PRMT5 based on FlashPlate technology; assay type: biochemical; conditions: PRMT5 5 nM, [3H]-SAM, 60 min at 25° C.; read-out: Enzymology (IC50)
Method: The radiometric assay for PRMT5 based on FlashPlate technology was adopted to determine IC50 of the test compound.
After dissolved in dimethyl sulfoxide respectively, the test compounds were added into an Echo Qualified 384-well plate and diluted to the desired concentrations. The diluted test compounds were transferred from the Echo Qualified 384-well plate to a 384-well reaction plate using an Echo 550 instrument, and dimethyl sulfoxide was transferred into both the control and blank wells. PRMT5 was added to 1×reaction buffer (including 10 mM Tris-HCl; pH 8.0; 0.01% Tween-20; 1 mM DTT) to form a 1.67×enzyme solution (at an enzyme concentration of 5 nM). A polypeptide substrate and [3H]-SAM were added to 1× reaction buffer to form a 2.5× substrate solution (the terminal concentrations of the substrates were 100 nM and 250 nM, respectively). At a volume of 15 μL/well, the 1.67× enzyme solution was added into wells of the 384-well reaction plate. In case of the blank wells, the enzyme solution was replaced with 15 μL of the 1× reaction buffer. The reaction plate was centrifuged at 1000 rpm for 1 min, and incubated at room temperature for 15 min. To each well of the 384-well reaction plate, 10 μL of the 2.5× substrate solution was added, centrifuged at 1000 rpm for 1 min, and reacted at 25° C. for 60 min. To each well of the 384-well reaction plate, 5 μL of reaction stop solution (which was […] cold SAM solution) was added to terminate the reaction. From each well of the test plate, 25 μL was measured and transferred to Flashplate and left at room temperature for 1 h. Thereafter, the Flashplate was washed with 0.1% Tween-20 solution three times. Readings were taken with MicroBeta 2. The data was converted into the inhibition rate data. Inhibition rate=(conversion ratecontrol well−conversion ratecompound well)/(conversion ratecontrol well−conversion rateblank well)×100%. The IC50curves were fitted using XLFit5.4.0.8. The fitting equation was as follows:Y=Bottom+(Top-Bottom)/(1+(IC50/X)^HillSlope).

[3] = test system: human acute monocytic leukemia cell line MV4-11; experiment: MV4-11 MTT cell growth inhibition; assay type: cell-based; conditions: 144 h, MV4-11 cells, MTT on Day 6
Method: The complete medium required for the culture of human acute monocytic leukemia cell line MV4-11 (Shanghai Cell Bank) for experiment was IMDM (Cat NO. 12440-053, gibco) supplemented with 10% FBS (Cat NO. SA311.02, cellmax). The cells were cultured in an incubator at 37° C. with 5% CO2. The experiment reagents included dimethyl sulfoxide (Tianjin Kemiou Chemical Reagent Co., Ltd.) and MTT (THIAZOLYL BLUE TETRAZOLIUM BROMIDE, CAS. NO. 298-93-1, VWR). The control compound GSK3326595 for experiment was homemade or commercially available. The test compound was encapsulated and stored at 4° C.
Dimethyl sulfoxide was used as a vehicle to fully dissolve the test compound, thereby formulating a stock solution at a concentration of 5×10^−2 mol/L. The stock solution was stored at −20° C. With the complete medium as diluent, the test compound was subjected to gradient dilution to afford dilutions at different concentrations for standby application. In a 96-well culture plate, the suspension of the human acute monocytic leukemia cell line MV4-11 in the complete medium, at a volume of 100 μL/well (2×10^3 cells/well), was added. Afterwards, the dilutions at different concentrations of the corresponding test compounds (100 μL/well) were added, respectively. Each of the test compounds was provided with 8 concentration gradients and three replicates were used for each concentration. The plates were incubated in an incubator at 37° C. with 5% CO2. On Day 6, the plate was treated with MTT (20 μL/well) and incubated for 4 h in an incubator at 37° C. with 5% CO2. The supernatant was discarded. Dimethyl sulfoxide (150 μL/well) was added and mixed well by shaking. The OD value at 550 nm was measured with a microplate reader. Wells containing only cell suspensions without the test compounds were control wells, and wells containing only complete media were blank wells. The cell growth inhibition rate was calculated according to the following equation: Inhibition rate=(OD valuecontrol well−OD valuesample well)/(OD valuecontrol well−OD valueblank well)×100%. According to the inhibition rate at each concentration, the half maximal inhibitory concentration IC50 value was calculated using the SPSS software. 2. Enzymatic Experiment

[4] = Pharmacokinetic experiment in SD rats; conditions: male, rat, plasma, po, 25 mg/kg
Method: (§1) SD rats (male, 180 g to 200 g, Beijing Vital River Laboratory Animal Technology Co., Ltd.) were administered with the test compounds (solvent: 2% DMSO+98% (0.2 g/mL) hydroxypropyl-β-cyclodextrin, dosing volume: 5 mL/kg) by gavage. Blood was collected from the orbits of the rats at different points in time (0.25, 0.5, 1, 2, 4, 8, 24 h) after administration. The collected whole blood was anticoagulated with heparin sodium and centrifuged at 3000 g to obtain rat plasma samples, and methanol was added thereto to precipitate proteins. The drug concentration in rat plasma after administration was determined by HIPLC-MS/MS method. A drug concentration-time curve was plotted and the pharmacokinetic parameters were calculated. Pharmacokinetic behaviors of the compounds after administration in rats were described by means of the parameter estimation of non-compartmental model based on statistical moment theory.

[5] = in vivo; conditions: male, SD, rat, po, 25 mg/kg
Method: as §1

PRMT5, sequence (O14744 whole entry): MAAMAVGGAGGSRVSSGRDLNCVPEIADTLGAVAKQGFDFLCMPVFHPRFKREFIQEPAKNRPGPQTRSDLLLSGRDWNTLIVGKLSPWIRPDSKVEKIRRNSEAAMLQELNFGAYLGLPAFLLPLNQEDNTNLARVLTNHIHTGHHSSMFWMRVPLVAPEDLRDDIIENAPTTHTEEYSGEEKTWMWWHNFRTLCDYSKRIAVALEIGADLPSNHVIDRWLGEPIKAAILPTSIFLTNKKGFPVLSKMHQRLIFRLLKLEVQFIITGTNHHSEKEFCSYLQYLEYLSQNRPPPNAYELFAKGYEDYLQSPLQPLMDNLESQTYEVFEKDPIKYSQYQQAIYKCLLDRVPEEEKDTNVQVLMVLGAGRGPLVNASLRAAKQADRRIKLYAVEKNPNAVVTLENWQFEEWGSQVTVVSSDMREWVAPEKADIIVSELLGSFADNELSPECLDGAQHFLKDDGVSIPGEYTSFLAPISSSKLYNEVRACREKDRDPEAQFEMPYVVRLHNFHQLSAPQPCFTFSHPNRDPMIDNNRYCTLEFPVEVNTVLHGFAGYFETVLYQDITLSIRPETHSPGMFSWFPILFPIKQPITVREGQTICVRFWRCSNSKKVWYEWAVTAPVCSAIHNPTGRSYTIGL
PRMT5, sequence (Q9BQA1 whole entry partner): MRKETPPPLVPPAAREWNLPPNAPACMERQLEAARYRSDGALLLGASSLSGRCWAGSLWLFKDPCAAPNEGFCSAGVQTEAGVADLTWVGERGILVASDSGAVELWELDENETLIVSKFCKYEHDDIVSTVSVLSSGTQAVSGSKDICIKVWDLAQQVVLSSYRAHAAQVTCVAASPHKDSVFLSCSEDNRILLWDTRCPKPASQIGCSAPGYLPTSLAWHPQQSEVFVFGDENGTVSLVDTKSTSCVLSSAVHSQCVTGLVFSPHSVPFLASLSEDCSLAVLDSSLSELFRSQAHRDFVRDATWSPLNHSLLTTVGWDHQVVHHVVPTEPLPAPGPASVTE

SMILES	IC50 [2] [nM]	IC50 [3] [nM]	AUC(0-t) [4] [ng·h/mL]	Cmax [4] [ng/mL]	Tmax [4] [min]	d9 Tumor Volume (mm^3) ([1]; 100 mg/kg BID)	Tumor Weight ([1]; 100 mg/kg BID) [g]	Tumor weight inhibition rate (%) ([1]; 100 mg/kg BID)	d0 Tumor Volume (mm^3) [1] [mm^3]	RTV (d9) ([1]; 100 mg/kg BID)	also measured
CC(=O)N1CCC(Nc2cc(C(=O)NC[C@H](O)CN3CCc4ccccc4C3)ncn2)CC1 [GSK3326595, reference compound]						135 ± 43** mm^3	0.1124 ± 0.0764	84.5	165.2 ± 23.1	0.8 ± 0.2	Body Weight Change (%) ([1]; 100 mg/kg BID): −6.8%
O=C(NC[C@H](O)CN1CCc2ccccc2C1)c1cc(NC2CCN(C(=O)C(=NO)C3CC3)CC2)ncn1 [PR-1, (S)-6-((1-(2-cyclopropyl-2-(hydroxyimino)acetyl)piperidin-4-yl)amino)-N-(3-(3,4-dihydroisoquinolin-2(1H)-yl)-2-hydroxypropyl)pyrimidine-4-carboxamide]	13	5.02									
CC(=NO)C(=O)N1CCC(Nc2cc(C(=O)NC[C@H](O)CN3CCc4ccccc4C3)ncn2)CC1 [PR-3, (S)-N-(3-(3,4-dihydroisoquinolin-2(1H)-yl)-2-hydroxypropyl)-6-((1-(2-(hydroxyimino)propanoyl)piperidin-4-yl)amino)pyrimidine-4-carboxamide]	15	1.24									
CON=C(C)C(=O)N1CCC(Nc2cc(C(=O)NC[C@H](O)CN3CCc4ccccc4C3)ncn2)CC1 [PR-4, (S)-N-(3-(3,4-dihydroisoquinolin-2(1H)-yl)-2-hydroxypropyl)-6-((1-(2-(methoxyimino)propanoyl)piperidin-4-yl)amino)pyrimidine-4-carboxamide]		6.77				55.7 ± 19.7***## mm^3	0.0648 ± 0.0267	91.1	165.3 ± 27.5	0.4 ± 0.1	Body Weight Change (%) ([1]; 100 mg/kg BID): −6.1%
CON=C(CC(C)C)C(=O)N1CCC(Nc2cc(C(=O)NC[C@H](O)CN3CCc4ccccc4C3)ncn2)CC1 [PR-5, (S)-N-(3-(3,4-dihydroisoquinolin-2(1H)-yl)-2-hydroxypropyl)-6-((1-(2-(methoxyimino)-4-methylpentanoyl)piperidin-4-yl)amino)pyrimidine-4-carboxamide]	23	1.44	674	660	20						
CC(=NO)C(=O)NC1CC2(C1)CC(Nc1cc(C(=O)NC[C@H](O)CN3CCc4ccccc4C3)ncn1)C2 (stereo partly drawn) [PR-8, (S)-N-(3-(3,4-dihydroisoquinolin-2(1H)-yl)-2-hydroxypropyl)-6-((6-(2-(hydroxyimino)propanamido)spiro[3.3]heptan-2-yl)amino)pyrimidine-4-carboxamide]	19	0.98									
CON=C(C)C(=O)NC1CC2(C1)CC(Nc1cc(C(=O)NC[C@H](O)CN3CCc4ccccc4C3)ncn1)C2 (stereo partly drawn) [PR-9, (S)-N-(3-(3,4-dihydroisoquinolin-2(1H)-yl)-2-hydroxypropyl)-6-((6-(2-(methoxyimino)propanamido)spiro[3.3]heptan-2-yl)amino)pyrimidine-4-carboxamide]	23	6.84	1270	875	30						
CON=C(C)C(=O)N1CC2(CC(Nc3cc(C(=O)NC[C@H](O)CN4CCc5ccccc5C4)ncn3)C2)C1 [PR-10, (S)-N-(3-(3,4-dihydroisoquinolin-2(1H)-yl)-2-hydroxypropyl)-6-((2-(2-(methoxyimino)propanoyl)-2-azaspiro[3.3]heptan-6-yl)amino)pyrimidine-4-carboxamide]	16	0.664				34.3 ± 29.2**## mm^3	0.0153 ± 0.0105	97.9	164.8 ± 32.5	0.2 ± 0.2	AUC(0-t) [5]: 2040 ng·h/mL; Cmax [5]: 1340 ng/mL; Tmax [5]: 25 min; animal death / drug toxicity observation ([1]; 100 mg/kg BID, one animal died due to incorrect gavage): the death was not caused by drug toxicity

Further lines, with some results ahead:

IC50 [2] [nM]	IC50 [3] [nM]	AUC(0-t) [4] [ng·h/mL]	Cmax [4] [ng/mL]	Tmax [4] [min]	SMILES	d9 Tumor Volume (mm^3) ([1]; 100 mg/kg BID)	Tumor Weight ([1]; 100 mg/kg BID) [g]	Tumor weight inhibition rate (%) ([1]; 100 mg/kg BID)	d0 Tumor Volume (mm^3) [1] [mm^3]	RTV (d9) ([1]; 100 mg/kg BID)	also measured
13		821	473	30	CON=C(C(=O)N1CCC(Nc2cc(C(=O)NC[C@H](O)CN3CCc4ccccc4C3)ncn2)CC1)C1CC1 [PR-2, (S)-6-((1-(2-cyclopropyl-2-(methoxyimino)acetyl)piperidin-4-yl)amino)-N-(3-(3,4-dihydroisoquinolin-2(1H)-yl)-2-hydroxypropyl)pyrimidine-4-carboxamide]						
16	1.9				O=C(NC1CC2(C1)CC(Nc1cc(C(=O)NC[C@H](O)CN3CCc4ccccc4C3)ncn1)C2)C(=NO)C1CC1 (stereo partly drawn) [PR-6, (S)-6-((6-(2-cyclopropyl-2-(hydroxyimino)acetamido)spiro[3.3]heptan-2-yl)amino)-N-(3-(3,4-dihydroisoquinolin-2(1H)-yl)-2-hydroxypropyl)pyrimidine-4-carboxamide]						
14	1.04	2540	1120	40	CON=C(C(=O)NC1CC2(C1)CC(Nc1cc(C(=O)NC[C@H](O)CN3CCc4ccccc4C3)ncn1)C2)C1CC1 (stereo partly drawn) [PR-7, (S)-6-((6-(2-cyclopropyl-2-(methoxyimino)acetamido)spiro[3.3]heptan-2-yl)amino)-N-(3-(3,4-dihydroisoquinolin-2(1H)-yl)-2-hydroxypropyl)pyrimidine-4-carboxamide]	60.2 ± 20.1***## mm^3	0.0710 ± 0.0353	90.2	165.6 ± 28.1	0.4 ± 0.1	Body Weight Change (%) ([1]; 100 mg/kg BID): −6.9%
18	1.4				O=C(NC[C@H](O)CN1CCc2ccccc2C1)c1cc(NC2CC3(C2)CN(C(=O)C(=NO)C2CC2)C3)ncn1 [PR-11, (S)-6-((2-(2-cyclopropyl-2-(hydroxyimino)acetyl)-2-azaspiro[3.3]heptan-6-yl)amino)-N-(3-(3,4-dihydroisoquinolin-2(1H)-yl)-2-hydroxypropyl)pyrimidine-4-carboxamide]						
2.7	0.691				CON=C(C(=O)N1CC2(CC(Nc3cc(C(=O)NC[C@H](O)CN4CCc5ccccc5C4)ncn3)C2)C1)C1CC1 [PR-12, (S)-6-((2-(2-cyclopropyl-2-(methoxyimino)acetyl)-2-azaspiro[3.3]heptan-6-yl)amino)-N-(3-(3,4-dihydroisoquinolin-2(1H)-yl)-2-hydroxypropyl)pyrimidine-4-carboxamide]						
